Experimental data: the OPERA property sets (Mansouri et al. 2018)
Converted amounts (≈) assume the structure as drawn.

Conditions: not given

logP | solubility | SMILES
2.81 |  | CCCCc1ccc(Cn2cncn2)cc1
2.6 |  | CCCCCCN1CCCC1=O
6.1 |  | CCCCCCCCCCCC
0.32 |  | COCCNCc1cc2cc(S(N)(=O)=O)sc2s1
6.81 |  | c1ccc2cc3cc4c(ccc5ccccc54)cc3cc2c1
5.77 |  | Clc1cc2c(Cl)cccc2c(Cl)c1Cl
1.99 |  | CC(C)(C#N)Nc1nc(Cl)nc(NC2CC2)n1
2.02 |  | OCc1c(Cl)cccc1Cl
4.5 |  | CCCCC(OC(Cc1ccccc1)C(=O)N1CCC(OCOC)CC1)C(=O)NC(CC1CCCCC1)C(O)CC(C(=O)NCCNc1noc(N)n1)C(C)C (stereo not drawn)
2.42 |  | CS(=O)CCCOc1ccc2ccccc2c1 (stereo not drawn)
1.94 |  | Cc1nc2ccc([N+](=O)[O-])cc2[nH]1
5.2 |  | ClC=C1C2CC(C(Cl)C2(Cl)Cl)C1(CCl)CCl (stereo not drawn)
-0.98 |  | Nc1ncnc2c1nc(Sc1ccc(Cl)cc1)n2C1OC2COP(=O)(O)OC2C1O (stereo not drawn)
1.4 |  | CCCc1oc(C)cc(=O)c1O
5.45 |  | COc1c(Cl)c(Cl)c(Cl)c(Cl)c1Cl
1.17 |  | CCCN1C(=O)C(=Cc2ccc([N+](=O)[O-])o2)SC1=NC(C)=O
5.19 |  | Nc1c(Oc2ccccc2)c(Oc2ccccc2)c(N)c2c1C(=O)c1ccccc1C2=O
-0.1 |  | CC1CCC(=O)N1 (stereo not drawn)
4 |  | CCCCC(OC(Cc1ccccc1)C(=O)N1CCC(OCOC)CC1)C(=O)NC(CC1CCCCC1)C(O)CC(C(=O)NCCNc1n[nH]c(N)n1)C(C)C (stereo not drawn)
3.51 |  | CCCCCCOC(=O)c1cccnc1
2.02 |  | Cc1c(CNc2ccccc2)cnc2nc(N)nc(N)c12
3.86 |  | Cc1nc(NCc2ccccc2)nc(C(Cl)(Cl)Cl)n1
1.05 |  | CC(=NN=C(N)N)c1cccs1
1.88 |  | CC(=O)CCC(C)C
 | 0.332 mM (≈ 100 µg/mL) | COCCCNc1nc(NCCCOC)nc(SC)n1
2.4 |  | O=C(OCc1ccccc1)c1cccnc1
2.29 |  | COc1cc(C(=O)NCc2ccc(OCCN(C)C)cc2)cc(OC)c1OC
4.5 |  | CC1=CCC(C(C)C)=CC1

logP | solubility | SMILES
1.58 |  | CC1(C)C=C(C(=O)NCCCN2C(=O)c3ccccc3C2=O)C(C)(C)N1
-0.04 |  | CCN1CCCC1=O
-0.2 |  | CC(=O)OCn1cc2c(=O)n(COC(C)=O)cnc2n1
-0.17 |  | OC(CNC1COCCC1Br)Cn1ccnc1 (stereo not drawn)
-1.48 |  | CCC(CO)(CO)CO
2.25 |  | CC(=O)OCCC(C)C
0.76 |  | CCCOC(=O)[C@@H](N)Cc1ccc(O)c(O)c1
-2.16 |  | Nc1ccc(S(=O)(=O)O)cc1
7.41 |  | Cc1cc(Cl)c(Cl)cc1Cc1ccc(Cl)cc1Cl
3.61 |  | CCn1cc(C(=O)NC(C(=O)OC)C(C)C)c(=O)c2ccc(C)nc21 (stereo not drawn)
1.65 |  | COC(=O)C(C#N)=Cc1ccco1
2.96 |  | c1ccc2c(c1)Cc1cccnc1-2
2.51 |  | CCOC(=O)n1c(-c2cscn2)nc2ccccc21
1.82 |  | CC1=CC(=O)C(C)=C(C)C1=O
-1.49 |  | COCCn1cnc2[nH]c(=O)n(C)c(=N)c21
7.92 |  | CCN(CC)CCCC(C)N=c1cc2n(-c3ccc(Cl)cc3)c3ccccc3nc-2cc1Nc1ccc(Cl)cc1 (stereo not drawn)
-2.2 | 2510 mM (≈ 700000 µg/mL) | CCc1c(C(=O)O)c(=O)cnn1-c1ccc(Cl)cc1
4.83 |  | CC1=CCC2CC1C2(C)C (stereo not drawn)
-0.41 |  | Nc1cc(Cl)c(S(N)(=O)=O)cc1S(N)(=O)=O
1.09 |  | O=C(OCCOCCOCCO)c1ccccc1
2.59 |  | CCCCNCc1ccccc1
-0.2 |  | CN1CCN(CCn2cncc2[N+](=O)[O-])CC1
2.99 |  | CCCCOCCNc1ccc(Cl)cc1C(N)=O
5.19 |  | Cc1ccc2oc(-c3ccccc3C(=O)O)c(Br)c2c1
1.29 |  | CCC(C)CO (stereo not drawn)
-0.69 |  | CNC(N)=S
3.35 |  | O=C(O)CCCC(=O)c1ccc(-c2ccccc2)cc1

SMILES | logP | solubility
COP(=S)(OC)Oc1ccc(SC)cc1 | 3.74 | 
ClC1(Cl)C2(Cl)C3(Cl)C4(Cl)C(Cl)(Cl)C5(Cl)C3(Cl)C1(Cl)C5(Cl)C24Cl (stereo not drawn) | 6.89 | 
COP(=S)(OC)Oc1c(Cl)cccc1C#N | 3.58 | 
c1ccc(N=Nc2ccccc2)cc1 |  | 0.0351 mM (≈ 6.4 µg/mL)
O=[N+]([O-])c1cc(Cl)cc(Cl)c1 | 3.09 | 
CC(C)CN(CC(C)C)N=O | 2.34 | 
C[Si]1(C)O[Si](C)(C)O[Si](C)(C)O[Si](C)(C)O[Si](C)(C)O1 | 8.03 | 
COC(=O)c1ccccc1S(=O)(=O)NC(=O)Nc1nc(C)cc(C)n1 | 1.2 | 
CCOP(=O)(CN(CCO)CCO)OCC | -0.72 | 
Brc1cccc(-c2ccccc2)c1 | 4.85 | 
Nc1ccc2c(c1)Cc1cc(Br)ccc1-2 | 3.92 | 
CC(C)N(C(=O)SCC(Cl)=CCl)C(C)C | 4.49 | 
CCOC1OC2OC3(C)CCC4C(C)C(O)CC(C1C)C24OO3 (stereo not drawn) | 2.14 | 
CC(C)(C#N)/N=N/C(C)(C)C#N | 1.1 | 
O=C(O)CC[Se]Cc1ccccc1 | 1.67 | 
CN1CC=C(c2ccc(N)cc2)CC1 | 1.48 | 

Same assay, conditions: 20 °C

solubility | SMILES
0.0433 mM (≈ 11.3 µg/mL) | COc1cc(C(Cl)(Cl)Cl)cc(Cl)n1
0.15 mM (≈ 50 µg/mL) | O=C1OC2(c3ccc(O)cc3Oc3cc(O)ccc32)c2ccccc21
131 mM (≈ 15000 µg/mL) | CC1CCC(O)CC1 (stereo not drawn)

SMILES | solubility
CCN(C(=O)n1nnn(-c2ccccc2Cl)c1=O)C1CCCCC1 | 0.00658 mM (≈ 2.3 µg/mL)
C=CCN(CC=C)c1c(C)cc(OC(=O)NC)cc1C | 0.255 mM (≈ 70 µg/mL)

Same assay, conditions: 22.0 °C

log10 OH rate constant (cm³/molecule/s) | SMILES
-14.1 | COC(F)(F)C(F)(F)C(F)(F)C(F)(F)F

Same assay, conditions: 23 °C

SMILES | solubility
Clc1ccc(Cl)c(-c2ccc(Cl)c(Cl)c2)c1 | 0.000136 mM (≈ 0.0397 µg/mL)
C[Si]1(C)O[Si](C)(C)O[Si](C)(C)O[Si](C)(C)O[Si](C)(C)O1 | 4.58e-05 mM (≈ 0.017 µg/mL)

Same assay, conditions: 23.0 °C

log10 OH rate constant (cm³/molecule/s) | SMILES
-10.1 | CCCCOCCOCCO

Same assay, conditions: 24.0 °C

log10 OH rate constant (cm³/molecule/s) | SMILES
-11 | c1ccc(Oc2ccccc2)cc1

Same assay, conditions: 25 °C

solubility | SMILES
2.55 mM (≈ 388 µg/mL) | CC1(C)C2CC3OC3(C)C1C2 (stereo not drawn)
63.1 mM (≈ 7710 µg/mL) | Cc1ccc(CO)cc1
0.0684 mM (≈ 17 µg/mL) | ClC(Cl)=C(Cl)C(Cl)(Cl)Cl
0.106 mM (≈ 18 µg/mL) | c1ccc(Oc2ccccc2)cc1
0.0427 mM (≈ 17.2 µg/mL) | CC(=O)OCC(=O)[C@@]1(O)CC[C@H]2[C@@H]3CCC4=CC(=O)C=C[C@]4(C)[C@H]3[C@@H](O)C[C@@]21C
2.11 mM (≈ 545 µg/mL) | O=C1CCC(N2C(=O)c3ccccc3C2=O)C(=O)N1 (stereo not drawn)
3.12 mM (≈ 400 µg/mL) | CCCCC(C=O)CC (stereo not drawn)
1190 mM (≈ 88200 µg/mL) | CCOC=O
13.1 mM (≈ 1700 µg/mL) | CCC(=O)OCC(C)C

SMILES | solubility
CC(Br)CBr (stereo not drawn) | 7.15 mM (≈ 1440 µg/mL)
CCOP(=O)(N=C1SCCS1)OCC | 2.55 mM (≈ 650 µg/mL)
Cc1cc(Cl)ccc1O | 28.1 mM (≈ 4000 µg/mL)
CC(C)N(C(=O)SCC(Cl)=CCl)C(C)C | 0.0518 mM (≈ 14 µg/mL)
CCC(Cl)(Cl)Cl | 12.9 mM (≈ 1900 µg/mL)
CC(C)(C#N)/N=N/C(C)(C)C#N | 2.13 mM (≈ 350 µg/mL)
O=[N+]([O-])c1ccc2c3c(cccc13)CC2 | 0.00457 mM (≈ 0.91 µg/mL)

Same assay, conditions: 25.0 °C

log10 OH rate constant (cm³/molecule/s) | SMILES
-11.6 | CCCC(=O)O
-13.1 | FCOC(C(F)(F)F)C(F)(F)F
-10.6 | COCCOC
-13.9 | COC(F)(F)C(F)(F)C(F)(F)F
-13.3 | FC(F)(F)C(Cl)Br (stereo not drawn)
-11 | CC(=O)CCC(C)C
-10.9 | CC(C)(C)N
-11 | CC1OCCO1
-10.9 | Cc1ccc(C(C)(C)C)cc1
-10.1 | CC/C=C\CCOC(C)=O

SMILES | log10 OH rate constant (cm³/molecule/s)
COC(F)(C(F)(F)F)C(F)(F)F | -13.8
C[Si]1(C)O[Si](C)(C)O[Si](C)(C)O[Si](C)(C)O[Si](C)(C)O1 | -11.8

Same assay, conditions: 26 °C

SMILES | solubility
CCNc1nc(O)nc(NC(C)C)n1 | 0.0299 mM (≈ 5.9 µg/mL)

Same assay, conditions: 30 °C

SMILES | solubility
Fc1ccccc1 | 16 mM (≈ 1540 µg/mL)
Cc1ccc([N+](=O)[O-])cc1 | 3.22 mM (≈ 442 µg/mL)
